Assay results as given in patent US20130165368A1, “ANTIMICROBIAL COMPOUNDS” (priority 2010, published 2013).
≈ marks a conversion by molar mass, not a printed value. Like-named read-outs stand apart in the source and are kept apart here.

Tests used:
Type in all cases: cell-based
MRSA FIN 54518 (E7) = assay: MIC agar dilution, MRSA strain 31; conditions: Staphylococcus aureus
Method: (§1) Molar equivalent concentrations were used to allow comparison between compounds of differing molecular mass. Due to weighing difficulties, any compound in solid form was melted in a water bath prior to dilution. To make ten-times strength concentrations, which takes into account agar dilution, 0.0352 mmol of each compound was weighed into plastic universal bottles and 4 mL of sterile distilled water (SDW) was added. To produce a homogenous emulsion the universals were vortexed; once achieved the emulsions were serial diluted by adding 2 mL to 2 mL of SDW.
(§2) For every 100 mL of Isosensitest agar (IST) (CM0471; Oxoid, Basingstoke, England), 3.1 g of the IST powder was added to 100 mL SDW (as per manufacturer's instructions) and sterilised for 15 minutes at 121° C. Once sterilised, the molten agar was cooled to 50° C. in a water-bath. Subsequently 4.8 g of CCEY powder (BC2160; Bioconnections, Wetherby, England), also known as Brazier's medium, was added to 100 mL SDW for every 100 mL of agar needed. This was then sterilised for 15 minutes at 121° C. Once sterilised the molten agar was cooled to 50° C. in a water-bath and 4 mL of egg-yolk emulsion (S2073; TCS Biosciences Ltd, Buckingham, United Kingdom) and 1 mL of lysed defibrinated horse blood (HB035; TCS Biosciences Ltd, Buckingham, United Kingdom) were also added for every 100 mL needed. Horse blood lysis is achieved by dilution to half concentration with SDW; when fully lysed the mixture will turn dark red in colour.
(§3) 18 mL agar was added to each universal and then poured into sterile Petri dishes. This step creates a 1/10 dilution resulting in agar plates of the required strength. Control plates for each set of strains were created by adding 18 mL of agar to 2 mL of SDW.
(§4) Suspensions of each bacterial species were prepared with a density equal to that of a 0.5 McFarland standard using a densitometer. All suspensions were made using sterile distilled water and fresh 18-20 hour cultures. As a 0.5 McFarland standard contains 1.5×10^8 CFU/mL and the multipoint inoculators applies 1 μL spots of liquid, each bacterial suspension was diluted 1/15 (20 μL suspension to 280 μL sterile distilled water).
(§5) Bacterial suspensions were prepared from fresh 18-24 hour cultures as previously described. 1 μL of each strain was inoculated onto all 100 agar plates containing a different chemical concentration and the 2 control plates. This was done using a multipoint inoculator which inoculates 20 strains per plate. All plates were incubated for 22 hours at 37° C. in aerobic conditions.
(§6) Each plate was examined for bacterial growth after 22 and 48 hours, with each being incubated in between examinations. A positive result was recorded as growth of ≧10 colonies. A negative result was recorded as growth of <10 colonies as this is equivalent to 99.9% inhibition. The lowest concentration of chemical that inhibited growth was recorded as the MIC. The results are recorded in Table IV below, where the numbers are quoted in mmol/L.
(§7) Given the positive performance of the ethoxylates of lauryl alcohol in reducing the MIC for a number of the micro-organisms tested, further MIC testing of Laureth-1 [C12E1] through to Laureth-8 [C12E8] was conducted on each of the following: • 10 strains of vancomycin-resistant enterococci (VRE)—listed in Table V below; and • 20 strains of methicillin-resistant Staphylococcus aureus (MRSA)—listed in Table VI.
(§8) The alkanol, alkanol derivatives, agar plates, and inocula were all prepared in the same way as described above.
(§9) The plates were examined in the same manner as described above and the results are recorded in Table VII below, where the numbers are quoted in mmol/L.

[1] = tested on: Enterococcus faecium (VRE) MB 3137; assay: MIC agar dilution, VRE strain 26
Method: as §1, §2, §3, §4, §5, §6, §7, §8, §9

MRSA EMRSA 15 19972/98 = assay: MIC agar dilution, MRSA strain 39; conditions: Staphylococcus aureus
Method: as §1, §2, §3, §4, §5, §6, §7, §8, §9

MRSA EMRSA 16 03732/95 = assay: MIC agar dilution, MRSA strain 45; conditions: Staphylococcus aureus
Method: as §1, §2, §3, §4, §5, §6, §7, §8, §9

MRSA NCTC 11939 = assay: MIC agar dilution, MRSA strain 50; conditions: Staphylococcus aureus, MRSA strain 50 NCTC 11939
Method: as §1, §2, §3, §4, §5, §6, §7, §8, §9

[2] = tested on: Staphylococcus aureus (MRSA); assay: MIC agar dilution, micro-organism 12 (11939); conditions: Staphylococcus aureus, MRSA, Staphylococcus aureus (MRSA) 11939, read-out: MIC
In short: (§10)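 Agar dilution in Isosensitest/CCEY agar with egg yolk and lysed horse blood; compounds as aqueous emulsions (myristyl and lauryl alcohol with 1-methyl-2-pyrrolidone and Tween 20). 1 µL spots of 1/15-diluted 0.5 McFarland suspensions, 37 °C aerobic, read at 22 and 48 h; MIC (mmol/L) is lowest concentration giving <10 colonies.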

[3] = tested on: MRSA GER 131/98 (Sger Iidc); assay: MIC agar dilution, MRSA strain 35; conditions: Staphylococcus aureus
Method: as §1, §2, §3, §4, §5, §6, §7, §8, §9

[4] = tested on: Enterococcus faecium (VRE) NCTC 12952; assay: MIC agar dilution, VRE strain 30
Method: as §1, §2, §3, §4, §5, §6, §7, §8, §9

MRSA EMRSA 15 21698/98 = assay: MIC agar dilution, MRSA strain 41; conditions: Staphylococcus aureus
Method: as §1, §2, §3, §4, §5, §6, §7, §8, §9

[5] = tested on: Enterococcus faecalis (VRE) MB 1969; assay: MIC agar dilution, VRE strain 27
Method: as §1, §2, §3, §4, §5, §6, §7, §8, §9

Candida albicans = assay: MIC agar dilution, micro-organism 19 (90028); conditions: Candida albicans 90028, read-out: MIC
In short: as §10

[6] = tested on: Enterococcus faecium (VRE) 12185 Clin waste; assay: MIC agar dilution, VRE strain 24
Method: as §1, §2, §3, §4, §5, §6, §7, §8, §9

MRSA EMRSA 15 1758/98 = assay: MIC agar dilution, MRSA strain 43; conditions: Staphylococcus aureus
Method: as §1, §2, §3, §4, §5, §6, §7, §8, §9

Structure (SMILES) | MIC (MRSA FIN 54518 (E7); 22 hrs) [µM] | MIC (MRSA FIN 54518 (E7); 48 hrs) [µM] | MIC ([1]; 22 hrs) [µM] | MIC ([1]; 48 hrs) [µM] | MIC (MRSA EMRSA 15 19972/98; 22 hrs) [µM] | MIC (MRSA EMRSA 15 19972/98; 48 hrs) [µM] | MIC (MRSA EMRSA 16 03732/95; 22 hrs) [µM] | MIC (MRSA EMRSA 16 03732/95; 48 hrs) [µM] | MIC (MRSA NCTC 11939; 22 hrs) [µM] | MIC (MRSA NCTC 11939; 48 hrs) [µM] | MIC ([2]; 22 h, 22 hrs) [µM] | MIC ([2]; 48 h, 48 hrs) [µM] | MIC ([3]; 22 hrs) [µM] | MIC ([3]; 48 hrs) [µM] | MIC ([4]; 22 hrs) [µM] | MIC ([4]; 48 hrs) [µM] | MIC (MRSA EMRSA 15 21698/98; 22 hrs) [µM] | MIC (MRSA EMRSA 15 21698/98; 48 hrs) [µM] | MIC ([5]; 22 hrs) [µM] | MIC ([5]; 48 hrs) [µM] | further results
CCCCCCCCCCCCOCCOCCOCCO [L3, Triethylene Glycol Monododecyl Ether] | 220 (≈ 70.1 µg/mL) | 440 (≈ 140 µg/mL) | 880 (≈ 280 µg/mL) | > 880 | 110 (≈ 35 µg/mL) | 110 (≈ 35 µg/mL) | 110 (≈ 35 µg/mL) | 110 (≈ 35 µg/mL) | 55 (≈ 17.5 µg/mL) | 55 (≈ 17.5 µg/mL) | 110 (≈ 35 µg/mL) | 110 (≈ 35 µg/mL) | 110 (≈ 35 µg/mL) | 110 (≈ 35 µg/mL) | 220 (≈ 70.1 µg/mL) | 220 (≈ 70.1 µg/mL) | 110 (≈ 35 µg/mL) | 110 (≈ 35 µg/mL) | 440 (≈ 140 µg/mL) | 440 (≈ 140 µg/mL) | MIC (Candida albicans; 22 hrs): 220 µM (≈ 70.1 µg/mL); MIC (Candida albicans; 48 hrs): 220 µM (≈ 70.1 µg/mL); MIC ([6]; 22 hrs): 880 µM (≈ 280 µg/mL); MIC ([6]; 48 hrs): > 880 µM; MIC (MRSA EMRSA 15 1758/98; 22 hrs): 55 µM (≈ 17.5 µg/mL); MIC (MRSA EMRSA 15 1758/98; 48 hrs): 110 µM (≈ 35 µg/mL)
CCCCCCCCCCCCOCCOCCOCCOCCOCCOCCO [L6, Hexaethylene Glycol Monododecyl Ether] | > 440 | > 440 | 880 (≈ 397 µg/mL) | > 880 | 110 (≈ 49.6 µg/mL) | 110 (≈ 49.6 µg/mL) | 220 (≈ 99.1 µg/mL) | 220 (≈ 99.1 µg/mL) | 110 (≈ 49.6 µg/mL) | 110 (≈ 49.6 µg/mL) | 110 (≈ 49.6 µg/mL) | 110 (≈ 49.6 µg/mL) | 110 (≈ 49.6 µg/mL) | 110 (≈ 49.6 µg/mL) | > 880 | > 880 | 110 (≈ 49.6 µg/mL) | 110 (≈ 49.6 µg/mL) | > 880 | > 880 | MIC (Candida albicans; 22 hrs): > 880 µM; MIC (Candida albicans; 48 hrs): 880 µM (≈ 397 µg/mL); MIC ([6]; 22 hrs): 880 µM (≈ 397 µg/mL); MIC ([6]; 48 hrs): 880 µM (≈ 397 µg/mL); MIC (MRSA EMRSA 15 1758/98; 22 hrs): 110 µM (≈ 49.6 µg/mL); MIC (MRSA EMRSA 15 1758/98; 48 hrs): 110 µM (≈ 49.6 µg/mL)
CCCCCCCCCCCCOCCOCCO [L2, Diethylene Glycol Monododecyl Ether] | 220 (≈ 60.4 µg/mL) | 220 (≈ 60.4 µg/mL) | > 880 | > 880 | 110 (≈ 30.2 µg/mL) | 110 (≈ 30.2 µg/mL) | 110 (≈ 30.2 µg/mL) | 110 (≈ 30.2 µg/mL) | 55 (≈ 15.1 µg/mL) | 110 (≈ 30.2 µg/mL) | 110 (≈ 30.2 µg/mL) | 110 (≈ 30.2 µg/mL) | 220 (≈ 60.4 µg/mL) | 220 (≈ 60.4 µg/mL) | 440 (≈ 121 µg/mL) | 440 (≈ 121 µg/mL) | 110 (≈ 30.2 µg/mL) | 110 (≈ 30.2 µg/mL) | 220 (≈ 60.4 µg/mL) | 220 (≈ 60.4 µg/mL) | MIC (Candida albicans; 22 hrs): 220 µM (≈ 60.4 µg/mL); MIC (Candida albicans; 48 hrs): 220 µM (≈ 60.4 µg/mL); MIC ([6]; 22 hrs): > 880 µM; MIC ([6]; 48 hrs): > 880 µM; MIC (MRSA EMRSA 15 1758/98; 22 hrs): 110 µM (≈ 30.2 µg/mL); MIC (MRSA EMRSA 15 1758/98; 48 hrs): 110 µM (≈ 30.2 µg/mL)
